PubChem BioAssay AID624404 (Broad Institute, 2012)
Inconclusive results are not listed. Activity calls are given as the source filed them.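 The calls were made as follows: active = luciferase signal rise whose fitted curve crosses a set activity limit at or below the top valid tested dose; inconclusive = flat fit with 30 to 70% rise, or poor fit; inactive = signal falling, flat within 30%, or crossing above top dose.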

system: D54 LucT luciferase reporter counterscreen, luminescence, 24 h; assay: luciferase activators in glycosylation-insensitive reporter cells, dose response, counter-screen for N-linked glycosylation inhibitor project, D54 LucT cells, luminescence, cherry pick (AID 624404)

`Cc1cccc(N2C(=O)N3[C@H](c4ccc(F)cc4)[C@@H]4C(=O)N(C5CCCCC5)C(=O)[C@@H]4[C@]3(Cc3ccccc3)C2=O)c1` and `COc1ccc([C@@H]2[C@@H]3C(=O)N(C(C)(C)C)C(=O)[C@@H]3[C@]3(Cc4ccccc4)C(=O)N(c4cccc(Br)c4)C(=O)N23)cc1` are within 1.5-fold of each other in AC35: 541 nM for the first, 762 nM for the second.

Compared with `COc1ccc(N/C=C/C(=O)c2cc(OC)c(OC)c(OC)c2)cc1`, `COc1ccc(C2(CNC(=O)c3cc(OC)c(OC)c(OC)c3)CCCC2)cc1OC` is 13-fold higher in AC35: 263 nM for the first, 3410 nM for the second.

Compared with `COc1cc(C(=O)NC2CCN(C)CC2)ccc1Nc1ncc2c(n1)N(CCc1ccccc1)CCC(=O)N2C`, `COc1ccc(-n2c(=S)[nH]c3cc(C(=O)NC4CCCCC4)ccc3c2=O)c(OC)c1` is 2.4-fold higher in AC35: 172 nM for the first, 414 nM for the second.

Going from `Cn1c(=O)n(C)c2cc(NS(=O)(=O)c3ccc(F)cc3)ccc21` to `COc1ccc(S(=O)(=O)Nc2ccc3c(c2)n(C)c(=O)n3C)cc1OC`, the AC35 falls from 1240 nM to 104 nM (12-fold).

Going from `COc1ccc(C(=O)CSc2nnc(-c3cc4ccccc4cc3O)n2Cc2ccco2)cc1` to `COc1ccc(Sc2nnc(Cc3ccccc3)c3ccccc23)cc1`, the AC35 rises from 1800 nM to 4370 nM (2.4-fold).

First: COc1ccc(S(=O)(=O)N2CCCCC2)cc1NC(=O)c1[nH]c(C)c(C(C)=O)c1C
Second: CC(=O)c1c(C)[nH]c(C(=O)Nc2cccc(S(=O)(=O)N3CCCC3)c2)c1C
The AC35 of the first is 6.4-fold lower: 621 nM for the first, 3950 nM for the second.

First: COc1ccc(/C=C2\CC/C(=C\c3ccc(OC)c(OC)c3)C2=O)cc1OC
Second: COc1ccc(NC(=O)c2cc3c(=O)n(C)c4ccccc4c3n2C)cc1OC
The AC35 of the first is 26-fold lower: 155 nM for the first, 4000 nM for the second.

`CCOc1ccc2[nH]c3c(N4CCc5ccccc5C4)ncnc3c2c1` and `CCOc1cc(-c2c(C#N)c(N)nc3c2CCc2ccccc2-3)ccc1O` are within 1.5-fold of each other in AC35: 4260 nM for the first, 3850 nM for the second.

Going from `Cc1cc(NCCN2CCOCC2)c2ccc3ccccc3c2n1` to `Cc1ccnc2nc(C(=O)Nc3cc(Cl)ccc3N3CCOCC3)nn12`, the AC35 rises from 17.8 nM to 155 nM (8.7-fold).

`CCOC(=O)[C@H]1[C@H]2COc3ccc(OC)cc3[C@@H]2N2C(=O)c3cc(OC)c(OC)cc3NC(=O)[C@@]12C` and `CCOC(=O)[C@H]1[C@H]2COc3ccc(Br)cc3[C@@H]2N2C(=O)c3cc(OC)c(OC)cc3NC(=O)[C@@]12C` are within 1.5-fold of each other in AC35: 3030 nM for the first, 3990 nM for the second.

Compared with `COc1ccc2[nH]c(C(=O)N3CCN(Cc4ccccc4)CC3)cc2c1OC`, `COc1ccc2[nH]c(C(=O)N/N=C/c3ccccc3OC)cc2c1` is 2.5-fold lower in AC35: 2980 nM for the first, 1170 nM for the second.

First: CC12CC[C@H]3[C@@H](CCC4(O)C[C@H](O)CCC34/C=N/NC(=O)c3ccccc3[N+](=O)[O-])C1(O)CCC2C1=CC(=O)OC1 (stereo not given in full)
Second: NC(=O)CC(NC(=O)Cc1ccc(Br)cc1)c1ccc(NC2CC3CCC2C3)c([N+](=O)[O-])c1 (stereo not given)
The AC35 of the first is 19-fold higher: 4030 nM for the first, 210 nM for the second.

`Cc1ccc(-c2nc3ncccc3o2)cc1NC(=O)c1ccc([N+](=O)[O-])o1` and `Cc1ccc2nsnc2c1NC(=O)c1ccc([N+](=O)[O-])o1` are within 1.5-fold of each other in AC35: 505 nM for the first, 571 nM for the second.

Compared with `CNC(=O)c1cccc(NC(=O)c2ccccc2OCc2ccccc2)c1`, `NC(=O)c1cccc(-c2coc3c(C(=O)NCc4ccccc4)cccc23)c1` is 6.8-fold higher in AC35: 454 nM for the first, 3070 nM for the second.

First: Cc1cccc2c(C(=O)N3CCN(c4ccccc4)CC3)cc(-c3ccncc3)nc12
Second: O=C(N/N=C/c1ccco1)c1cc(-c2ccncc2)nc2ccccc12
The AC35 of the first is 57-fold lower: 126 nM for the first, 7160 nM for the second.

Compared with `Cc1ccc(CC(=O)NCc2ccc(F)cc2)cc1`, `CCCCNC(=O)c1cc(-c2ccc(F)cc2)on1` is 5.3-fold lower in AC35: 4270 nM for the first, 806 nM for the second.

`Cn1c(=O)cc(OCCCC(=O)NC2CCCC2)c2ccccc21` and `CC(C)CCNC(=O)CCCOc1cc(=O)n(C)c2ccccc12` are within 1.5-fold of each other in AC35: 3240 nM for the first, 2260 nM for the second.

`COc1ccc(Nc2nc(N)c(C(=O)c3ccc(OC)cc3)s2)cc1` and `COc1ccc(Nc2oc(-c3ccc(Cl)cc3)nc2C#N)cc1` are within 1.5-fold of each other in AC35: 148 nM for the first, 202 nM for the second.

Going from `Cc1ccc(-c2nc(NCCCN(C)C)c3ccccc3n2)cc1` to `c1ccc2c(-c3nc4ccccc4[nH]3)cccc2c1`, the AC35 falls from 3890 nM to 911 nM (4.3-fold).

Compared with `Cc1cc(C(=O)N/N=C/c2c3ccccc3cc3ccccc23)n[nH]1`, `O=C(N/N=C/c1cccs1)c1cc(-c2cccc3ccccc23)n[nH]1` is 5.5-fold higher in AC35: 643 nM for the first, 3530 nM for the second.

Going from `COc1ccccc1-c1c(C#N)c(N)nc2c1CCc1ccccc1-2` to `COc1cccc(C(N)c2nc(-c3csc4ccccc34)cs2)c1` (stereo not given), the AC35 rises from 1110 nM to 4880 nM (4.4-fold).

Going from `CC(=O)NC(=C(Cl)Cl)S(=O)(=O)c1ccccc1` to `Cc1ccc(O)c(C(=O)C=Cc2ccccc2)c1`, the AC35 falls from 3670 nM to 8.29 nM (440-fold).

Going from `COCCCNC(=O)c1sc2ncn(CC(=O)Nc3ccc(C)c(Cl)c3)c(=O)c2c1C` to `COc1cc(C(=O)NCC(=O)NCCN2C(=O)S/C(=C\c3ccccc3Cl)C2=O)cc(OC)c1OC`, the AC35 falls from 2510 nM to 1150 nM (2.2-fold).

`CSc1ncnc2c1ncn2CCCN[C@H](C)c1cccc2ccccc12` and `OCC1OC(n2cnc3c(SCc4ccccc4)ncnc32)C(O)C1O` (stereo not given) are within 1.5-fold of each other in AC35: 527 nM for the first, 733 nM for the second.

Going from `Cn1nc(C(=O)Nc2cccc(S(=O)(=O)N3CCCCC3)c2)c2ccccc2c1=O` to `O=C(CCN1C(=O)/C(=C\c2ccccc2)SC1=S)N1CCCCC1`, the AC35 rises from 50.3 nM to 6190 nM (120-fold).

First: O=C(CNC(=O)c1ccc(Br)o1)Nc1cccc(-c2cnc3ccccc3n2)c1
Second: COc1ccccc1C(=O)Nc1ccc2c(c1)nc(CCNC(=O)c1ccco1)n2C
The AC35 of the first is 78-fold higher: 3530 nM for the first, 45.3 nM for the second.

`C[C@@]12C(=O)Nc3cc(F)ccc3C(=O)N1[C@H]1c3ccccc3OC[C@@H]1[C@@H]2c1ccccc1` and `Cc1ccc2c(c1)[C@H]1[C@H](CO2)[C@H](c2ccccc2)[C@]2(C)C(=O)Nc3cc(Cl)ccc3C(=O)N12` are within 1.5-fold of each other in AC35: 1510 nM for the first, 1060 nM for the second.

Going from `Cc1ccc(-n2nc(C)c(/C=N/NC(=O)c3cccs3)c2Cl)cc1` to `Cc1ccc(C(=O)Nc2ccc(C(=O)/C=C/c3cccs3)cc2)cc1`, the AC35 rises from 55.6 nM to 709 nM (13-fold).

`O=C(NCCCn1ccnc1)c1cc(-c2cccs2)on1` and `Cc1noc(C)c1-c1ccc(C(=O)NCCc2ccccc2)c2occc12` are within 1.5-fold of each other in AC35: 2020 nM for the first, 2770 nM for the second.

Compared with `COc1ccc(Cl)cc1NC(=O)Nc1ccc(C(=O)N2CCCC2)cc1`, `COc1ccc(Cl)cc1S(=O)(=O)Nc1ccc2c(c1)n(C)c(=O)n2C` is 5.5-fold lower in AC35: 2950 nM for the first, 535 nM for the second.

First: COc1ccc(C2NC(=S)NC3=C2CCCC3=C2SCCS2)cc1 (stereo not given)
Second: COc1ccc(C(=O)Nc2sc(C)c(C)c2CN2CC(C)OC(C)C2)cc1 (stereo not given)
The AC35 of the first is 1.9-fold lower: 186 nM for the first, 352 nM for the second.

First: Nc1nc(CN2CCN(Cc3ccccc3)CC2)nc(Nc2ccc3c(c2)OCCO3)n1
Second: O=C(c1cn(Cc2ccccc2)nc1-c1ccccc1)N1CCN(c2ccccn2)CC1
The AC35 of the first is 3.9-fold lower: 251 nM for the first, 984 nM for the second.

First: CCN(CC)S(=O)(=O)c1ccc(N2CCOCC2)c(NC(=O)c2[nH]c(C)c(C(C)=O)c2C)c1
Second: COc1ccc(S(=O)(=O)NCc2ccccn2)cc1NC(=O)c1ccccc1C
The AC35 of the first is 9.4-fold lower: 330 nM for the first, 3110 nM for the second.

Going from `COc1ccc2c(c1)C(=O)N1[C@H]3c4cc(OC)ccc4OC[C@@H]3[C@H](c3ccccc3)[C@]1(C)C(=O)N2` to `COc1ccc2c(c1)OC[C@H]1[C@H]2N2C(=O)c3cc(Cl)ccc3NC(=O)[C@@]2(C)[C@H]1c1ccccc1`, the AC35 rises from 99.7 nM to 996 nM (10-fold).

Going from `c1ccc(Cc2nnc(Sc3ccccc3)c3ccccc23)cc1` to `Cc1cc(-c2nnc3n2N=C(c2ccc(-c4ccccc4)cc2)CS3)n[nH]1`, the AC35 falls from 3830 nM to 1260 nM (3-fold).

`O=C(Nc1cc(=O)[nH]c(=O)[nH]1)c1cc(Cl)ccc1Cl` and `Nc1cc2c(cc1Br)-c1c(C(=O)O)cccc1C2O` (stereo not given) are within 1.5-fold of each other in AC35: 3150 nM for the first, 2680 nM for the second.

First: OCC1OC(n2ccc3c(SCc4ccccc4)ncnc32)C(O)C1O (stereo not given)
Second: C[C@H](CO)N1C[C@H](C)[C@@H](CN(C)S(=O)(=O)c2cccs2)Oc2c(NC(=O)Cc3ccccc3)cccc2C1=O
The AC35 of the first is 20-fold lower: 148 nM for the first, 2960 nM for the second.

Going from `CCOC(=O)c1c(NC(=O)c2cc3n(n2)C(C(F)(F)F)CC(c2cccs2)N3)sc(C)c1C` (stereo not given) to `COCCNC(=S)N1CCc2cc(OC)c(OC)cc2C1c1cccs1` (stereo not given), the AC35 falls from 5360 nM to 352 nM (15-fold).

Compared with `Cn1cccc1/C=C1\SC(=Nc2ccccc2)NC1=O`, `COc1ccccc1NC(=O)/C=C/c1ccc2c(c1)OCO2` is 2.5-fold lower in AC35: 473 nM for the first, 190 nM for the second.

First: O=C1OCC2=C1C(c1ccc3c(c1)OCO3)c1cc3c(cc1O2)OCO3 (stereo not given)
Second: Cc1ccc(C(=O)c2coc3c2C(=O)C(=O)c2ccccc2-3)cc1
The AC35 of the first is 12-fold lower: 352 nM for the first, 4050 nM for the second.

`CCn1c2ccccc2c2cc(/C=N/NC(=O)c3ccc(O)cc3)ccc21` and `CN(C)CCCN(C(=O)c1ccc(S(=O)(=O)N2CCc3ccccc3C2)cc1)c1nc2ccc(F)cc2s1` are within 1.5-fold of each other in AC35: 4490 nM for the first, 5390 nM for the second.

Compared with `COc1cc(/C=C(/C(=O)c2cccs2)c2nc3ccccc3[nH]2)cc(OC)c1O`, `CC1CN(C(=O)c2ccc(COc3ccc4ccccc4c3)o2)CC(C)O1` (stereo not given) is 16-fold higher in AC35: 19.5 nM for the first, 306 nM for the second.

First: CC1(C)Cc2c(c(N3CCOCC3)nc3snc(N)c23)CO1
Second: Cc1cccn2c(=O)c3cc(C(=O)NC4CCCCC4)n(C)c3nc12
The AC35 of the first is 6.3-fold lower: 1200 nM for the first, 7540 nM for the second.

`NNC(=O)c1ccc2nc(-c3ccc(Br)cc3)cn2c1` showed an AC35 of 780 nM.

In the case of `COc1ccc(NC(=O)CSc2nc3ccsc3c(=O)n2Cc2ccccn2)c(OC)c1`, the AC35 is reported as > 19500 nM (inactive).
With `COc1ccc(/C=C/C(=O)c2ccccc2)cc1COc1ccccc1F` the AC35 was > 19500 nM (inactive).
For `COc1ccc(NC(=O)c2cc(S(=O)(=O)N(C)C)ccc2N2CCCC2)cc1Cl`, the AC35 was > 19500 nM (inactive).
